Measurements taken from patent publication US20230312752A1 (Brown University, priority 2021, published 2023).

B1: FRG: murine monoclonal anti-CHI3L1 antibody raised against amino acid 223-234 of human CHI3L1; heavy chain SEQ ID NO: 13, light chain SEQ ID NO: 14 (antibody, V domains shown)
VH: QIQLVQSGPELKKPGETVKISCKASGYTFTNYGMNWVKQAPGKGLKWMGWINTYTGEPTYADDFKGRFAFSLETSASTAYLQINNLRNEDMSTYFCARLGYGKFYVMDYWGQGTSVTVSS
VL: DVVMTQTPLSLPVSLGDQASISCRSSQSLVHSNGNTYLHWYLQKPGQSPKLLIYKVSNRFSGVPDRFSGSGSGTDFTLKISRVEAEDLGVYFCSQSTHVTWTFGGGTKLEIK

Columns and labels:
Format in all cases: cell-based, SARS-CoV-2
[1] = tested on: pseudovirus with S protein D614G, E484K, UK, SA, BZ variants
[2] = tested on: pseudovirus with Delta S protein mutations
[3] = tested on: pseudoviruses with omicron S protein mutations
[4] = tested on: pseudovirus with alpha, beta or gamma S protein mutations

Row | Molecule | cellular integration of Spike proteins [1] | uptake of pseudovirus [2] | uptake of pseudoviruses [3] | rCHI3L1 stimulatory effects on pseudovirus uptake [4] | uptake of pseudovirus in cells treated with and without rCHI3L1 [4] | CHI3L1-stimulated pseudovirus uptake [2] | pseudovirus uptake when exogenous CHI3L1 was not administered [2] | epithelial cell uptake of pseudoviruses [3] | uptake of pseudoviruses in cells treated with and without rCHI3L1 [4]
1 | rhCHI3L1: recombinant human CHI3L1 (chitinase 3 like 1) protein, from R&D Inc. or generated at Brown University | stimulated | potent stimulator | potent stimulator | – | – | – | – | – | –
2 | C[C@H]1O[C@H](O[C@H]2[C@H](O)[C@@H](O)[C@@H](O)[C@H](O)[C@@H]2O)[C@@H](N)C[C@@H]1NC(=N)C(=O)O [Kasugamycin, 2-amino-2-[(2R,3S,5S,6R)-5-amino-2-methyl-6-[(2R,3S,5S,6S)-2,3,4,5,6-pentahydroxycyclohexyl]oxyoxan-3-yl]iminoacetic acid] | – | – | – | markedly decreased | markedly diminished | abrogated | diminished | inhibited | –
3 | B1 | – | – | – | – | markedly diminished | abrogated | diminished | inhibited | markedly diminished
